Experimental data published in article PMC5787466, “Accelerated bottom-up drug design platform enables the discovery of novel stearoyl-CoA desaturase 1 inhibitors for cancer therapy” (Oncotarget, 2017).
Read-outs that look alike come from different tables or passages of the source.

Assays:
A498 = assay: Proliferation dose-response IC50, A498; type: cell-based; settings: Homo sapiens, proliferative IC50, linear regression modeling of dose-response
Procedure: (§1) Error bars indicate standard deviation for n=2 replicates. […] To evaluate inhibition of SCD1 by these molecules, we used LC/MS to quantify changes in SCD1-catalyzed conversion of stearoyl-CoA to oleoyl-CoA in response to drug treatments in vitro using SCD1 protein extracted from murine liver (Figure 3c, Supplementary Figure 2g). […] Synthesis routes and spectral data including NMR and MS are also provided (Supplementary Figures 3-6).
(§2) Cells were seeded at 5,000 cells/well in clear-bottom 96-well plates in triplicate. Drug treatment was applied at 1:1000 in reduced serum conditions (3%). […] Alternatively, cells were plated 2x10^5/well in 12-well plates (Genesee Scientific) in triplicate prior to drug treatment. After 120-hour treatment, cell number was established using a Coulter Particle Counter (Beckman). Oleic acid-albumin (Sigma Aldrich) was added to media at 5µM, and was applied adjuvant to drug treatment. Drug stocks were prepared in DMSO (Sigma) at 1000x. IC50 dosing per cell line was calculated using CalcuSyn analytical software.

ACHN = assay: Proliferation dose-response IC50, ACHN; type: cell-based; settings: Homo sapiens, proliferative IC50, linear regression modeling of dose-response
Procedure: as §1, §2

Caki2 = assay: Proliferation dose-response IC50, Caki2; type: cell-based; settings: Homo sapiens, CAKI-2; proliferative IC50, linear regression modeling of dose-response
Procedure: as §1, §2

[1] = Pharmacokinetics after oral (PO) and intravenous (IV) administration, serum; type: in vivo, rat; settings: male, C57BL/6, mouse; for bioavailability: absolute, from AUC0-last and nominal dose; for Cmax / half-life: po
Procedure: (e) Maximum serum concentration (Cmax) of SSI-4 before the administration of a second dose. (f) AUC curve to infinite time. (g) Summary of pharmacokinetics for SSI-4, where absolute bioavailability (%) is quantitated with AUC0-last and nominal dose.
Pharmacokinetic assessment was performed for SSI-4 administered to fasted male C57BL/6 mice either intravenously (IV) or by oral gavage (PO) in DMSO:PEG400:water (10:70:20) as a clear solution at 5 mg/mL (IV dosing), and 1,3 or 10 mg/mL (respectively for the PO dosing). Serum analysis was performed by LC-MS-MS.

4 ccRCC cell lines = assay: High-throughput proliferative screen, single point; settings: in at least 2/4 ccRCC cell lines
Description: Using linear regression modeling generated from dose-response curves, proliferative inhibitory concentrations (IC50) of these 5 compounds were established (Figure 3b, Supplementary Figure 2b-2f).
(a) High-throughput proliferative screen
of known and novel SCD1 inhibitors in ccRCC cell lines. Dashed line represents a 40% decrease in proliferation as compared to DMSO
included as a known SCD1 inhibitor. Compounds labeled with an asterisk (*) are single-blinded known SCD1 inhibitors. (b-f) Dose-
the proliferative dose-response line graph.

CNC(=O)c1ccnc(NC(=O)N2CCC(Oc3ccccc3Cl)CC2)c1 [SSI-4]
IC50 (A498): 0.009 µM
IC50 (ACHN): 0.003 µM
IC50 (Caki2): 0.009 µM
bioavailability ([1]; oral 10 mg/kg): 119%
bioavailability ([1]; oral 30 mg/kg): 152%
bioavailability ([1]; oral 100 mg/kg): 212%
AUC ([1]; oral, 10 mg/kg): 20900 ng·h/mL
AUC ([1]; oral, 30 mg/kg): 71200 ng·h/mL
AUC ([1]; oral, 100 mg/kg): 336000 ng·h/mL
Cmax ([1]; 10 mg/kg): ~4320 ng/mL
half-life ([1]; 10 mg/kg, oral, 10 mg/kg, read-out: T1/2 (converted)): 3.48 h
Cmax ([1]; 30 mg/kg): ~15900 ng/mL
half-life ([1]; 30 mg/kg, oral, 30 mg/kg, read-out: T1/2 (converted)): 2.71 h
Cmax ([1]; 100 mg/kg): ~43300 ng/mL
half-life ([1]; 100 mg/kg, oral, 100 mg/kg, read-out: T1/2 (converted)): 3.94 h
half-life ([1]; 100 mg/kg, range over the oral doses 10, 30, 100 mg/kg, read-out: median serum terminal half-life (T1/2)): 2.71 to 3.94 h
decrease in proliferation (4 ccRCC cell lines): > 40%
